Key:
[1] = biological target: T1, human TRPV1 receptor (hTRPV1) (Homo sapiens (Human), UniProt Q8NER1); assay: Acid activation assay (pH 5.0, FLIPR intracellular Ca2+); type: cell-based; settings: 37.5 μM compound, percentage of the maximal pH 5.0-induced response remaining; for remaining activity at 37.5 µM: read-out: hTRPV1 H+ (max % remain)
Method: Dulbecco's modified Eagle's medium (DMEM) with 4.5 mg/mL D-glucose, fetal bovine serum, L-glutamine, and 2-morpholinoethanesulfonic acid (MES) were purchased from Sigma-Aldrich Co. (St. Louis, Mo.). Dulbecco's phosphate-buffered saline (DPBS) with Ca^2+, Mg^2+, and 1 mg/mL D-glucose (pH 7.4), Geneticin®, 0.25% trypsin-1 mM EDTA, and penicillin-streptomycin were purchased from Invitrogen Corp. (Carlsbad, Calif.). The FLIPR® Calcium 4 assay kit was purchased from Molecular Devices (Sunnyvale, Calif.).
(§1) The cDNAs for the human TRPV1 receptor (hTRPV1) were isolated by reverse transcriptase-polymerase chain reaction (RT-PCR) from human small intestine poly A+ RNA supplied by Clontech (Palo Alto, Calif.) using primers designed surrounding the initiation and termination codons identical to the published sequences (Hayes et al. Pain 2000, 88, 205-215). The resulting cDNA PCR products were subcloned into pCIneo mammalian expression vector (Promega) and fully sequenced using fluorescent dye-terminator reagents (Prism, Perkin-Elmer Applied Biosystems Division) and a Perkin-Elmer Applied Biosystems Model 373 DNA sequencer or Model 310 genetic analyzer. Expression plasmids encoding the hTRPV1 cDNA were transfected individually into 1321N1 human astrocytoma cells using Lipofectamine®. Forty-eight hours after transfection, the neomycin-resistant cells were selected with growth medium containing 800 μg/mL Geneticin (Gibco BRL). Surviving individual colonies were isolated and screened for TRPV1 receptor activity. Cells expressing recombinant homomeric TRPV1 receptors were maintained at 37° C. in DMEM containing 4 mM L-glutamine, 300 μg/mL G418 (Cal-biochem) and 10% fetal bovine serum under a humidified 5% CO2 atmosphere.
The functional activity of compounds at the TRPV1 receptor was determined by measurement of intracellular Ca^2+ levels ([Ca^2+]i) using the Fluorescence Imaging Plate Reader (FLIPR)^TETRA®. All compounds were tested over a 12-point one-half-log concentration range. Compound stocks, 10 mM, were prepared in DMSO, and diluted serially across a 384-well plate using a Bravo BenchCel workstation (Agilent Technologies, Santa Clara, Calif.).
On the day of the experiment growth medium was removed, and the no-wash FLIPR®Calcium-4 dye (λEX=470-495 nm, λEM=515-575 nm) was added to each well using the Multidrop® dispenser. Cells were incubated for 90-120 minutes in the dark at 25° C. Test compounds were dissolved in DMSO, and plates were prepared using an Agilent Bravo workstation (Agilent Technologies Inc., Santa Clara, Calif.). Compounds were added to the cells 3 minutes prior to the addition of a pH 5.0 solution. Reagents were delivered at a rate of 40 μL/sec, and the final assay volume was 80 μL. Acidic pH solutions were prepared by titration of DPBS/MES with 1 N HCl. The intensity of the fluorescence was captured and digitally transferred to an interfaced PC.

[2] = biological target: T1, human TRPV1 receptor (hTRPV1); assay: Capsaicin activation assay (FLIPR intracellular Ca2+); type: cell-based; settings: inhibition of capsaicin-induced intracellular Ca2+ increase; compounds added 3 minutes prior to capsaicin; read-out: hTRPV1 cap. IC50
Method: Dulbecco's modified Eagle medium (D-MEM) (with 4.5 mg/mL glucose) and fetal bovine serum were obtained from Hyclone Laboratories, Inc. (Logan, Utah). Dulbecco's phosphate-buffered saline (D-PBS) (with 1 mg/mL glucose and 3.6 mg/l Na pyruvate, without phenol red), L-glutamine, hygromycin B, and Lipofectamine® were obtained from Life Technologies (Grand Island, N.Y.). G418 sulfate was obtained from Calbiochem-Novabiochem Corp. (San Diego, Calif.). Capsaicin (8-methyl-N-vanillyl-6-nonenamide) was obtained from Sigma-Aldrich, Co. (St. Louis, Mo.). Fluo-4 AM (N-[4-[6-[(acetyloxy)methoxy]-2,7-difluoro-3-oxo-3H-xanthen-9-yl]-2-[2-[2-[bis[2-[(acetyloxy)methoxy]-2-oxyethyl]amino]-5-methylphenoxy]ethoxy]phenyl]-N-[2-[(acetyloxy)methoxy]-2-oxyethyl]-glycine, (acetyloxy)methyl ester) was purchased from Molecular Probes (Eugene, Oreg.).
as §1, with “D-MEM” for “DMEM”
The functional activity of compounds at the TRPV1 receptor was determined by measurement of intracellular Ca^2+ levels ([Ca^2]i) using the Fluorescence Imaging Plate Reader (FLIPR)^TETRA®. All compounds were tested over a 12-point one-third-log concentration range. Compound stocks, 10 mM, were prepared in DMSO, and diluted serially across a 384-well plate using a Bravo BenchCel workstation (Agilent Technologies, Santa Clara, Calif.). A stock concentration of capsaicin (10 mM) was made in DMSO, and diluted in D-PBS to a final concentration of 200 nM (4×). On the day prior to the experiment, recombinant HEK293 cells that stably express either human or rat TRPV1 (hTRPV1-3) were removed from tissue culture flasks and plated in growth medium into black-walled clear-bottom 384-well Biocoat™ poly-D-lysine assay plates (BD Biosciences, Bedford, Mass.) using a Multidrop® dispenser (ThermoScientific, Waltham, Mass.). On the day of the experiment, growth medium was removed, and the no-wash FLIPR® Calcium-4 dye (λEX=470-495 nm, λEM=515-575 nm; Molecular Devices, Sunnyvale, Calif.) was added to each well using the Multidrop® dispenser. Cells were incubated for 90-120 minutes in the dark at room temperature. Test compounds were added to the cells 3 minutes prior to the addition of 200 nM capsaicin (4×), and the final assay volume was 80 μL. Fluorescence readings were made at 1 to 5 second intervals over the course of the experimental run. The peak increase in relative fluorescence units (minus baseline) was calculated, and expressed as a percentage of the 50 nM capsaicin (control) response. Curve-fits of the data were solved using a four-parameter logistic Hill equation in GraphPad Prism® (GraphPad Software, Inc., San Diego, Calif.), and IC50 values (concentration of the test compounds that inhibits 50% of the intracellular Ca^2+ concentration increase induced by capasin) were calculated.

T1 sequence (Q8NER1 whole entry): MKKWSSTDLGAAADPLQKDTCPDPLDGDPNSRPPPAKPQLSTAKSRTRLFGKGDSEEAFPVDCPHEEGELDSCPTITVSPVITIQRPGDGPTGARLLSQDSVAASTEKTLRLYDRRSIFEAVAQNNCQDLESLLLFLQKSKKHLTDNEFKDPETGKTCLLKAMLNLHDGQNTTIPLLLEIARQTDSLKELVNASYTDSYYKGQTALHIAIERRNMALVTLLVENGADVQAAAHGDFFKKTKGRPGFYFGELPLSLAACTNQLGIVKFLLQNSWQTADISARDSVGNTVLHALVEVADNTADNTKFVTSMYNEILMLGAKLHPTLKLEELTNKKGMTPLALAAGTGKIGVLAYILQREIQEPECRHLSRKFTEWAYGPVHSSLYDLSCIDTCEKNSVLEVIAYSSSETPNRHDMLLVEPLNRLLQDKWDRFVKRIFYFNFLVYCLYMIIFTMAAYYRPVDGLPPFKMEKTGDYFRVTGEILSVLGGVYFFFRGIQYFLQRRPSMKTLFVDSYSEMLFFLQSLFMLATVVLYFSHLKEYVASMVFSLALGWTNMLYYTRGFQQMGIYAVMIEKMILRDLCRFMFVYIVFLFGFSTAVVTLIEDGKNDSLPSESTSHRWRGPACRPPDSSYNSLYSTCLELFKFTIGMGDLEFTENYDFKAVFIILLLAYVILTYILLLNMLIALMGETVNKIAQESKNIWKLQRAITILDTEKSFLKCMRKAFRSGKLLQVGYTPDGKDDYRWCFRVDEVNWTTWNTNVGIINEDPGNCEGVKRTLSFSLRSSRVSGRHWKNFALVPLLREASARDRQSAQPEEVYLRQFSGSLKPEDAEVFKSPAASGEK

remaining activity at 37.5 µM [1] [%]	IC50 [2] [nM]	hTRPV1 H+ (max % remain) [1] [%]	SMILES
18	747	–	CC1(C)C[C@@H](NC(=O)NCc2ccc(NS(C)(=O)=O)c(F)c2)c2ccc(F)cc2O1 [Example 7, N-{2-fluoro-4-[({[(4R)-7-fluoro-2,2-dimethyl-3,4-dihydro-2H-chromen-4-yl]carbamoyl}amino)methyl]phenyl}methanesulfonamide]
41	615	–	C[C@@]1(CF)C[C@@H](NC(=O)NCc2ccc(NS(C)(=O)=O)c(F)c2)c2ccc(Cl)cc2O1 [Example 39, N-{4-[({[(2S,4R)-7-chloro-2-(fluoromethyl)-2-methyl-3,4-dihydro-2H-chromen-4-yl]carbamoyl}amino)methyl]-2-fluorophenyl}methanesulfonamide]
60	791	–	CS(=O)(=O)Nc1ccc(CNC(=O)N[C@@H]2CC(CF)(CF)Oc3c2ccc(Cl)c3F)cc1F [Example 20, N-{4-[({[(4R)-7-chloro-8-fluoro-2,2-bis(fluoromethyl)-3,4-dihydro-2H-chromen-4-yl]carbamoyl}amino)methyl]-2-fluorophenyl}methanesulfonamide]
–	> 37500	77	CS(=O)(=O)Nc1ccc(CNC(=O)N[C@H]2CCOc3cc(OC(F)(F)F)ccc32)cc1F [Example 24, N-{2-fluoro-4-[({[(45)-7-(trifluoromethoxy)-3,4-dihydro-2H-chromen-4-yl]carbamoyl}amino)methyl]phenyl}methanesulfonamide]
59	22500	–	CS(=O)(=O)Nc1ccc(CNC(=O)N[C@@H]2CC(CF)(CF)Oc3ccccc32)cc1F [Example 27, N-{4-[({[(4R)-2,2-bis(fluoromethyl)-3,4-dihydro-2H-chromen-4-yl]carbamoyl}amino)methyl]-2-fluorophenyl}methanesulfonamide]
74	7560	–	CC1(C)C[C@@H](NC(=O)NCc2ccc(NS(C)(=O)=O)c(F)c2)c2ccccc2O1 [Example 21, N-{4-[({[(4R)-2,2-dimethyl-3,4-dihydro-2H-chromen-4-yl]carbamoyl}amino)methyl]-2-fluorophenyl}methanesulfonamide]
68	29500	–	CS(=O)(=O)Nc1ccc(CNC(=O)N[C@@H]2CC(CF)(CF)Oc3c(F)cccc32)cc1F [Example 28, N-{2-fluoro-4-[({[(4R)-8-fluoro-2,2-bis(fluoromethyl)-3,4-dihydro-2H-chromen-4-yl]carbamoyl}amino)methyl]phenyl}methanesulfonamide]
64	256	–	C[C@@]1(CF)C[C@@H](NC(=O)NCc2ccc(NS(C)(=O)=O)c(F)c2)c2ccc(C(F)(F)F)cc2O1 [Example 37, N-{2-fluoro-4-[({[(2S,4R)-2-(fluoromethyl)-2-methyl-7-(trifluoromethyl)-3,4-dihydro-2H-chromen-4-yl]carbamoyl}amino)methyl]phenyl}methanesulfonamide]
27	1150	–	CC1(C)C[C@@H](NC(=O)NCc2ccc(NS(C)(=O)=O)c(F)c2)c2ccc(F)c(F)c2O1 [Example 29, N-{4-[({[(4R)-7,8-difluoro-2,2-dimethyl-3,4-dihydro-2H-chromen-4-yl]carbamoyl}amino)methyl]-2-fluorophenyl}methanesulfonamide]
42	1280	–	CS(=O)(=O)Nc1ccc(CNC(=O)NC2CC3(CCCC3)Oc3ccccc32)cc1F (stereo not shown) [Example 44, N-(4-{[(3,4-dihydrospiro[chromene-2,1′-cyclopentan]-4-ylcarbamoyl)amino]methyl}-2-fluorophenyl)methanesulfonamide]
–	23100	101	CS(=O)(=O)Nc1ccc(CNC(=O)N[C@H]2CC3(CCC3)Oc3ccc(F)cc32)cc1F [Example 33, N-{2-fluoro-4-[({[(45)-6-fluoro-3,4-dihydrospiro[chromene-2,1′-cyclobutan]-4-yl]carbamoyl}amino)methyl]phenyl}methanesulfonamide]
71	5280	–	C[C@]1(C(F)F)C[C@@H](NC(=O)NCc2ccc(NS(C)(=O)=O)c(F)c2)c2ccccc2O1 [Example 41, N-{4-[({[(2R,4R)-2-(difluoromethyl)-2-methyl-3,4-dihydro-2H-chromen-4-yl]carbamoyl}amino)methyl]-2-fluorophenyl}methanesulfonamide]
82	466	–	CCC1(CC)C[C@@H](NC(=O)NCc2ccc(NS(C)(=O)=O)c(F)c2)c2ccc(OC(F)(F)F)cc2O1 [Example 19, N-{4-[({[(4R)-2,2-diethyl-7-(trifluoromethoxy)-3,4-dihydro-2H-chromen-4-yl]carbamoyl}amino)methyl]-2-fluorophenyl}methanesulfonamide]
27	209	–	CCC1(CC)C[C@@H](NC(=O)NCc2ccc(NS(C)(=O)=O)c(F)c2)c2ccc(Cl)cc2O1 [Example 14, N-{4-[({[(4R)-7-chloro-2,2-diethyl-3,4-dihydro-2H-chromen-4-yl]carbamoyl}amino)methyl]-2-fluorophenyl}methanesulfonamide]

From patent publication US8796328B2, “TRPV1 antagonists” (AbbVie Inc., priority 2012, dated 2014)
